According to patent US4748161A, “Triterpenyl esters of organic acids and hypolipidemic agents composed of them” (Amano Pharmaceutical Co., Ltd., priority 1984, dated 1988):

Legend:
[1] = tested on: male ddy strain mice; assay: Acute toxicity test, mice, oral; assay type: in vivo, mouse (male ddy strain); conditions: 0.1 to 5 g/Kg; for Mortality: 2 weeks observation
Protocol: (§1) Acute toxicity tests were conducted using 5 male ddy strain mice (30±2 g) and 5 male Wistar strain rats (100±2 g) for each compound by oral administration.
(§2) The above 66 compounds of esters, and as control drugs, cycloartenol, 24-methylenecycloartanol, cyclobranol, and γ-orizanol were given forcibly to the above-mentioned mice and rats by means of a throat explorer rod in doses of 0.1 to 5 g/Kg for mice and 2 to 6 g/Kg for rats. During the test, the temperature of the animal room was kept at 22° to 23 ° C. […] In the inspection conducted after 2-week observation, no macroscopic lesion was found in any part of main organs. Thus the compound of the invention has very low toxicity, so that the LD50 value could not determined.

[2] = tested on: serum lipids and serum lipid hydroperoxide; assay: Pharmacological test method A for anti-hyperlipidemic activity (serum lipids, 2 weeks feeding); assay type: in vivo, male Wistar strain rats
In short: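 Serum TC, HDL-C (heparin precipitation), PL, TG and LPO measured by colorimetric kits, largely at 500 nm, from abdominal aorta blood after 16 h fasting. Rats (male Wistar, 10/group) ate a cholesterol/cholic acid diet 10 g/day for 2 weeks, supplemented with 1% each of three cycloartane triterpenoids.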

[3] = tested on: serum TC; conditions: 1% added to diet containing 0.5% of cholesterol; cited from earlier work
[4] = tested on: male Wistar strain rats; assay: Acute toxicity test, rats, oral; assay type: in vivo, rat (male Wistar strain); conditions: 2 to 6 g/Kg; for Mortality: 2 weeks observation
Protocol: as §1, §2

[5] = tested on: serum lipids; conditions: 0.2% in high cholesterol diet; cited from earlier work

SMILES	Symptoms of toxicosis [1]	Mortality [1]	AI change [2]	percentage of TC lowering [3]	Symptoms of toxicosis [4]	Mortality [4]	decrease of TC, TG, or PL level [5]
C=C(CCC(C)C1CCC2(C)C3CCC4C(C)(C)C(O)CCC45CC35CCC12C)C(C)C (stereo not drawn) [Sample 3, 24-methylenecycloartanol]	no symptom of toxicosis appeared	none of the animals died	only a slight tendency to increase	10.2%	no symptom of toxicosis appeared	none of the animals died	
CC(C)=C(C)CCC(C)C1CCC2(C)C3CCC4C(C)(C)C(O)CCC45CC35CCC12C (stereo not drawn) [Sample 2, cyclobranol]	no symptom of toxicosis appeared	none of the animals died	showed tendencies to decrease it		no symptom of toxicosis appeared	none of the animals died	
CC(C)=CCC[C@@H](C)[C@H]1CC[C@@]2(C)[C@@H]3CC[C@H]4C(C)(C)[C@@H](O)CC[C@@]45C[C@@]35CC[C@]12C [Sample 1, cycloartenol]	no symptom of toxicosis appeared	none of the animals died	showed tendencies to decrease it	13.7%	no symptom of toxicosis appeared	none of the animals died	
O=C(O)C=Cc1ccccc1 [cinnamic acid]							no decrease
